Values joined by “and” are separate entries in the source; they are usually repeats but may differ in a detail not shown here. Equal values may be shown once.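 These data come from cells grown in 96-well plates and exposed to compound for 48 hours at five concentrations. GI50: concentration for 50% inhibition of growth. TGI is the concentration that stops growth completely.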
Tests used:
Test in all cases: DTP human tumour cell line panel, 48 h
MDA-MB-468 breast = system: MDA-MB-468 breast
A498 renal = system: A498 renal
MOLT-4 leukemia = system: MOLT-4 leukemia
ACHN renal = system: ACHN renal
HCC-2998 colon = system: HCC-2998 colon
RPMI-8226 leukemia = system: RPMI-8226 leukemia
BT-549 breast = system: BT-549 breast
HL-60(TB) leukemia = system: HL-60(TB) leukemia
NCI-H23 lung = system: NCI-H23 lung
DU-145 prostate = system: DU-145 prostate
TK-10 renal = system: TK-10 renal
HCT-15 colon = system: HCT-15 colon
786-0 renal = system: 786-0 renal
RXF 393 renal = system: RXF 393 renal
EKVX NSCLC = system: EKVX NSCLC
CCRF-CEM leukemia = system: CCRF-CEM leukemia
OVCAR-4 ovarian = system: OVCAR-4 ovarian
OVCAR-3 ovarian = system: OVCAR-3 ovarian
SNB-19 CNS = system: SNB-19 CNS
MCF7 breast = system: MCF7 breast
SK-MEL-2 melanoma = system: SK-MEL-2 melanoma

SMILES: COc1ccc(N=c2nc3sc4cc(Cl)ccc4n3c(N)c2C#N)cc1
- GI50 (MDA-MB-468 breast): 1110 nM
- TGI (MDA-MB-468 breast): 19700 nM

SMILES: COc1cccc(C2C(C#N)=C(N)Oc3cc(OCCCCCC[P+](c4ccccc4)(c4ccccc4)c4ccccc4)ccc32)c1 (configuration not stated)
- GI50 (MDA-MB-468 breast): 222 nM
- TGI (MDA-MB-468 breast): 611 nM

SMILES: COc1ccc(CN2c3ccccc3Sc3ccccc32)cc1O
- GI50 (MDA-MB-468 breast): 531 nM
- TGI (MDA-MB-468 breast): 12300 nM

SMILES: COc1ccc2nc(Nc3cccc(NC(=O)c4ccc(CN5CCCN(C)CC5)c(C(F)(F)F)c4)c3)ccc2c1
- GI50 (A498 renal): 177 nM
- TGI (A498 renal): 325 nM
- GI50 (MOLT-4 leukemia): 102 nM
- TGI (MOLT-4 leukemia): 352 nM
- GI50 (ACHN renal): 171 nM
- TGI (ACHN renal): 308 nM
- GI50 (HCC-2998 colon): 175 nM
- TGI (HCC-2998 colon): 313 nM
- GI50 (RPMI-8226 leukemia): 176 nM
- TGI (RPMI-8226 leukemia): 456 nM
- GI50 (BT-549 breast): 160 nM
- TGI (BT-549 breast): 297 nM
- GI50 (HL-60(TB) leukemia): 189 nM
- TGI (HL-60(TB) leukemia): 438 nM
- GI50 (NCI-H23 lung): 148 nM
- TGI (NCI-H23 lung): 282 nM
- GI50 (DU-145 prostate): 171 nM
- TGI (DU-145 prostate): 316 nM
- GI50 (TK-10 renal): 179 nM
- TGI (TK-10 renal): 318 nM
- GI50 (HCT-15 colon): 51.1 nM
- TGI (HCT-15 colon): 170 nM
- GI50 (786-0 renal): 169 nM
- TGI (786-0 renal): 309 nM
- GI50 (RXF 393 renal): 134 nM
- TGI (RXF 393 renal): 267 nM
- GI50 (EKVX NSCLC): 167 nM
- TGI (EKVX NSCLC): 307 nM
- GI50 (CCRF-CEM leukemia): 173 nM
- TGI (CCRF-CEM leukemia): 531 nM
- GI50 (OVCAR-4 ovarian): 171 nM
- TGI (OVCAR-4 ovarian): 340 nM
- GI50 (MDA-MB-468 breast): 125 nM
- TGI (MDA-MB-468 breast): 256 nM
- GI50 (OVCAR-3 ovarian): 177 nM
- TGI (OVCAR-3 ovarian): 334 nM
- GI50 (SNB-19 CNS): 173 nM
- TGI (SNB-19 CNS): 313 nM
- GI50 (MCF7 breast): 121 nM
- TGI (MCF7 breast): 261 nM
- GI50 (SK-MEL-2 melanoma): 175 nM
- TGI (SK-MEL-2 melanoma): 315 nM

SMILES: CN(Cc1cnc2nc(N)nc(N)c2n1)c1c(Cl)cc(C(=O)NC(CCC(=O)O)C(=O)O)cc1Cl (configuration not stated)
- GI50 (MDA-MB-468 breast): < 21.1 nM

SMILES: COC(=O)N[C@@H](C)CNc1nccc(-c2cn(C(C)C)nc2-c2cc(Cl)cc(NS(C)(=O)=O)c2F)n1
- GI50 (MDA-MB-468 breast): 24800 nM
- TGI (MDA-MB-468 breast): > 100000 nM

SMILES: Cc1cc(C)c(-c2c(O)c(Br)c(-c3c(C)cc(C)c(Br)c3C)c(O)c2Br)c(C)c1Br
- GI50 (MDA-MB-468 breast): 2830 nM
- TGI (MDA-MB-468 breast): 11100 nM

SMILES: COc1ccc2c(c1)[n+](=O)c(/C=C/C(=O)c1cc(OC)c(OC)c(OC)c1)c(C)n2[O-]
- GI50 (MDA-MB-468 breast): 3160 nM
- TGI (MDA-MB-468 breast): 18000 nM

SMILES: Fc1ccc(-c2ncn(C3CCNCC3)c2-c2ccnc(Oc3ccc(Cl)cc3)n2)cc1
- GI50 (MDA-MB-468 breast): 1780 nM
- TGI (MDA-MB-468 breast): 5360 nM

SMILES: C/C(=N\NC(=S)N1CCCC1)c1ccccn1
- GI50 (MDA-MB-468 breast): < 10 nM
- TGI (MDA-MB-468 breast): 80.1 nM

SMILES: CCS(=O)(=O)c1cccc(-c2cc(C(=O)NC3CCN(C)CC3)c(C)c3[nH]c4ncc(C)cc4c23)c1
- GI50 (MDA-MB-468 breast): 192 nM and 86.9 nM
- TGI (MDA-MB-468 breast): 2690 nM and 470 nM

SMILES: CCC(=C(c1ccc(OCCN2CCCCCC2)cc1)c1ccc(OCCN2CCCCCC2)cc1)c1ccc(Cl)cc1
- GI50 (MDA-MB-468 breast): 656 nM
- TGI (MDA-MB-468 breast): 1490 nM

SMILES: O=C(O)C(Cc1ccccc1)N1C(=O)/C(=C/C(Cl)=C/c2ccc([N+](=O)[O-])cc2)SC1=S (configuration not stated)
- GI50 (MDA-MB-468 breast): 1390 nM
- TGI (MDA-MB-468 breast): 3280 nM

SMILES: COc1ccc(C2C3=C(COC3=O)Oc3cc4c(cc32)OCO4)cc1OC (configuration not stated)
- GI50 (MDA-MB-468 breast): 4700 nM
- TGI (MDA-MB-468 breast): > 100000 nM

SMILES: CSCc1ncc(-c2ccc(C(F)(F)F)cc2)c(NC2CCCCCC2)n1
- GI50 (MDA-MB-468 breast): > 10000 nM
- TGI (MDA-MB-468 breast): > 10000 nM

SMILES: CCCCS(=O)(=O)c1cc(Nc2ccc(O)c3c2C(=O)c2ccccc2C3=O)ccc1C
- GI50 (MDA-MB-468 breast): 88300 nM
- TGI (MDA-MB-468 breast): > 100000 nM

SMILES: O=C(NCc1cn(Cc2cccc(Oc3ccccc3)c2)nn1)c1cccnc1NCc1ccc(Cl)cc1
- GI50 (MDA-MB-468 breast): 3440 nM
- TGI (MDA-MB-468 breast): > 100000 nM

SMILES: CCCCC[C@H]1C/C=C2/C(=O)C=C[C@@H]2C/C=C\CCCC(=O)O1
- GI50 (MDA-MB-468 breast): 134 nM
- TGI (MDA-MB-468 breast): 577 nM

SMILES: N#C/C(=C/C=C/c1cccc(Cl)c1)S(=O)c1ccccc1 (configuration not stated)
- GI50 (MDA-MB-468 breast): 258 nM
- TGI (MDA-MB-468 breast): 758 nM

SMILES: COc1ccc(C(=O)c2ccccc2)c(O)c1
- GI50 (MDA-MB-468 breast): 40000 nM
- TGI (MDA-MB-468 breast): > 100000 nM

SMILES: Cn1cc(-c2csc(-c3ccc(Cl)cc3)n2)c2cccnc21
- GI50 (MDA-MB-468 breast): 10500 nM
- TGI (MDA-MB-468 breast): 31100 nM

SMILES: CN(CCOc1ccc(NS(C)(=O)=O)cc1)CCc1ccc(NS(C)(=O)=O)cc1
- GI50 (MDA-MB-468 breast): > 100000 nM
- TGI (MDA-MB-468 breast): > 100000 nM

SMILES: CC(C)(O)c1cc(Nc2cc(Oc3cn(C4CC4)nc3C3CCOCC3)ccn2)ccn1
- GI50 (MDA-MB-468 breast): 30600 nM
- TGI (MDA-MB-468 breast): > 100000 nM

SMILES: COc1ccc(/C=C(\C#N)c2cc(OC)c(OC)c(OC)c2)cc1
- GI50 (MDA-MB-468 breast): 22.2 nM
- TGI (MDA-MB-468 breast): 2520 nM

SMILES: CCOc1ccc2cc(-c3nn(CC4CCN(C)CC4)c4ncnc(N)c34)ccc2c1
- GI50 (MDA-MB-468 breast): 14500 nM
- TGI (MDA-MB-468 breast): 32200 nM

SMILES: COc1ccc(C2=NNC(c3sc(Cl)nc3Cl)C2)cc1 (configuration not stated)
- GI50 (MDA-MB-468 breast): 2600 nM
- TGI (MDA-MB-468 breast): 8190 nM

SMILES: COc1cc(C2CC(c3ccc(Cl)cc3)=NN2C(C)=O)ccc1Oc1ccnc2cc(Cl)ccc12 (configuration not stated)
- GI50 (MDA-MB-468 breast): 4220 nM
- TGI (MDA-MB-468 breast): > 100000 nM

SMILES: COc1cc(N)c(Cl)cc1C(=O)N[C@@H]1CCN(CCCOc2ccc(F)cc2)C[C@@H]1OC
- GI50 (MDA-MB-468 breast): 89400 nM
- TGI (MDA-MB-468 breast): > 100000 nM

SMILES: C=C1C(=O)O[C@@H]2C[C@@H](C)[C@@H]3C=CC(=O)[C@@]3(C)[C@@H](OC(=O)CCCC(=O)O[C@H]3[C@@H]4C(=C)C(=O)O[C@@H]4C[C@@H](C)[C@@H]4C=CC(=O)[C@]43C)[C@H]12
- GI50 (MDA-MB-468 breast): 14.3 nM
- TGI (MDA-MB-468 breast): 32.8 nM

SMILES: CCOC(=O)c1sc(NC(=O)COc2ccc(/C=C3\CCc4cc(OC)ccc4C3=O)cc2)nc1C
- GI50 (MDA-MB-468 breast): 1730 nM
- TGI (MDA-MB-468 breast): 7200 nM

SMILES: CCN(CC)c1ccc(/C=N/N=C(N)N)cc1
- GI50 (MDA-MB-468 breast): 1880 nM
- TGI (MDA-MB-468 breast): 6610 nM

SMILES: CC(=O)c1nc(-c2ccc(C[C@@H](CNC(=O)CN(C)C)NC(=O)c3ccc(OC(C)C)c(Cl)c3)cc2)cn1C
- GI50 (MDA-MB-468 breast): 39.9 nM
- TGI (MDA-MB-468 breast): 14300 nM

SMILES: CN(C)CCN=c1nc2c(c(N)n1-c1ccccc1)c(=S)n(-c1ccccc1)c(=S)n2-c1ccccc1
- GI50 (MDA-MB-468 breast): 1360 nM
- TGI (MDA-MB-468 breast): 3020 nM

SMILES: CCOC(=O)/C=C/c1ccc([N+](=O)[O-])o1
- GI50 (MDA-MB-468 breast): 3760 nM
- TGI (MDA-MB-468 breast): 17500 nM

— PubChem BioAssay (NCI)
